Assay results published in patent publication US11083723B2, “Use of roluperidone to treat negative symptoms and disorders, increase neuroplasticity, and promote neuroprotection” (Minerva Neurosciences, Inc., priority 2018, dated 2021).

What was measured:
[1] = test system: BDNF expression by astrocytes; assay: BDNF expression by astrocytes, qPCR; type: cell-based, rat; conditions: for BDNF expression astrocytes, % increase of control conditions: 25 ug/mL, 5 days incubation
Protocol: For analysis of BDNF expression by real-time quantitative polymerase chain reaction (qPCR), astrocytes were seeded in 24 well-plates pre-coated with poly-D-lysine. After 1 day of culture, fresh serum free medium containing compounds was added during 5 days at 37° C. At the end of the incubation time total RNA content were extracted and reverse transcription was performed. Expression levels were calculated using the ΔCt method where the expression level of the mRNA of interest is given by 2-ΔCT with ΔCT=CT target mRNA−CT reference mRNA (Gapdh), in the same sample.
Rat Primary Culture of Astrocytes—rat mixed glial cells were cultured as described by McCarthy et al., 1980. Primary rat glial cells were prepared from the cortical of newborn Wistar rats (1 day). Briefly, meninges and blood vessels of the mice cortex were removed and placed in ice-cold medium of Leibovitz (L15; PanBiotech, ref P04-27055, batch 4511117) containing 2% of Penicillin-Streptomycin (PS; PanBiotech, ref P06-07100, batch 2110917) and 1% of bovine serum albumin (BSA; PanBiotech, ref P06-1391100, batch H171006). Tissues were dissociated with 0.25% trypsin-EDTA (PanBiotech, ref P10-023100, batch 8970318) at 37° C. for 10 min. Cells were then submitted to a supplementary incubation of 15 min at 37° C. in presence of deoxyribonuclease I (0.1 mg/ml Panbiotech, ref: P60-37780100, batch: H170706). Cells were then pelleted (5 min at 1200 rpm) and trypsinization was stopped by adding DMEM (Panbiotech, Ref P04-03600, Batch 5181217) supplemented with 10% FCS (Fischer, Ref 10270106, batch 42G2068K), 1 mM of Na/pyruvate (PanBiotech, ref: P04-43100, batch: 3470914) and 2% PS. Cells suspension was mechanically dissociated and filtered through 40 μm diameter nylon meshes (BD Falcon, Ref: 352340). The cells were collected by centrifugation at 1200 rpm/min for 10 min, re-suspended in culture medium and then plated in culture flasks (Dutscher, ref: 690175). Cells were seeded at a density of 1.25×10^5 cells/cm^2 and cultured in 5% CO2 at 37° C. Medium was changed three times per week.
Analysis of BDNF expression by real-time quantitative polymerase chain reaction (PCR): astrocytes were seeded in 24 well-plates pre-coated with poly-D-lysine (Sigma, ref P7886, batch: SLBQ9797V). After 1 day of culture, fresh serum free medium containing compounds was added during 5 days at 37° C. At the end of the incubation time, medium was removed and total RNA content were extracted using kit nucleo spin RNS XS (Macherey Nagel; 20 μL/well). 6 wells/condition were done. RNA concentration was determined using a Nanodrop 2000 spectrophotometer (Life Technologies ThermoFisher Scientific, Villebon sur Yvette, France).
Reverse transcription was performed on 500 ng of RNA using the high capacity RNA-to-cDNA mix (Applied Biotechnologies). qPCR was performed on 12.5 ng of cDNA using the following primers, purchased from Applied Biotechnology.
For qPCR reactions, the kit TaqMan™ Fast Universal PCR Master Mix (2×) was used. The following volumes were used: mix: 10 uL, enzyme: 4 uL, oligo: 1 uL each, cDNA: 5 uL (12,5 ng). For the comparisons between various compounds and concentrations, expression levels were calculated using the ΔCt method where the expression level of the mRNA of interest is given by 2-ΔCT with ΔCT=CT target mRNA−CT reference mRNA (Gapdh), in the same sample. For the cultures treated with GA or the unknown compound, relative expression levels were determined according to the ΔΔCt method where the expression level of the mRNA of interest is given by 2-ΔΔCT where ΔΔCT=ΔCt for treated cultures−ΔCt for untreated cultures.

[2] = modified release (MR) formulation of Compound (I) that reduces QT prolongation; cited from earlier work
[3] = test system: BDNF release by primary hippocampal neurons; assay: BDNF release by primary hippocampal neurons, in situ ELISA; type: cell-based, rat; conditions: 1 μM, 3 days incubation
Protocol: Hippocampal neurons were plated in 96-well Nunc MaxiSorp surface polystyrene flat-bottom immunoplate precoated with poly-D-lysine during 30 min an anti-BDNF monoclonal antibody overnight at 4° C. at a density of 70,000 cells/well. […] At the end of drug treatment, cells were carefully washed with TBST (20 mM Tris-HCl (pH 7.6), 150 mM NaCl, and 0.05% (vol/vol) Tween 20). The plate was then incubated with the polyclonal anti-human BDNF antibody overnight and BDNF quantified.
Experimental Protocol—In Situ ELISA on Primary Hippocampal Neurons Hippocampal Neuron Culture
Newborn rats (Wistar rats, Janvier) were deeply anesthetized by hypothermia and decapitated. […] Cells were mechanically dissociated by 3 passages through a 10 ml pipette. Cells were then centrifuged at 515×g for 10 min at 4° C. […] Viable cells were counted in a Neubauer cytometer using the trypan blue exclusion test.
Hippocampal neurons were plated in 96-well Nunc MaxiSorp surface polystyrene flat-bottom immunoplate precoated with poly-D-lysine during 30 min (Sigma, Ref: P7886, batch: SLBS8705) an anti-BDNF monoclonal antibody overnight at 4° C. at a density of 70000 cells/well.
At the end of drug treatment, cells were carefully washed with TBST (20 mM Tris-HCl (pH 7.6), 150 mM NaCl, and 0.05% (vol/vol) Tween 20). The plate was then incubated with the polyclonal anti-human BDNF antibody overnight. The amount of specifically bound polyclonal antibody was then detected through the use of the anti-IgY-horseradish peroxidase tertiary antibody, which when exposed to the chromogenic substrate (TMB reagent; Promega), changes color in proportion to the amount of BDNF present in the sample. The color intensity was quantified by measuring the absorbance at 450 nm.

[4] = test system: BDNF release by primary rat astrocytes; assay: BDNF release by primary rat astrocytes, in situ ELISA; type: cell-based; conditions: 1 μM, 5 days incubation
Protocol: At confluency, astrocytes were plated in 96-well Nunc MaxiSorp surface polystyrene flat-bottom immunoplate precoated with poly-D-lysine during 30 min. and an anti-BDNF monoclonal antibody overnight at 4° C. at a density of 30,000 cells/well. […] At the end of drug treatment, cells were carefully washed with TBST (20 mM Tris-HCl (pH 7.6), 150 mM NaCl, and 0.05% (vol/vol) Tween 20). The plate was then incubated with the polyclonal anti-human BDNF antibody overnight and BDNF quantified. Experimental Protocol-In Situ ELISA on Primary Astrocytes Rat Primary Culture of Astrocytes Rat mixed glial cells were cultured as described by McCarthy et al. Primary rat glial cells were prepared from the cortical of newborn Wistar rats (1 day). […] Medium was changed 3 times per week. At confluency, astrocytes were plated in 96-well Nunc MaxiSorp surface polystyrene flat-bottom immunoplate precoated with poly-D-lysine during 30 min (Sigma, Ref: […], batch: SLBS8705) and an anti-BDNF monoclonal antibody overnight at 4° C. at a density of 30,000 cells/well. (Balkowiec and Katz “Cellular Mechanisms Regulating Activity-Dependent Release of Native Brain-Derived Neurotrophic Factor from Hippocampal Neurons” J. […] At the end of drug treatment, cells were carefully washed with TBST (20 mM Tris-HCl (pH 7.6), 150 mM NaCl, and 0.05% (vol/vol) Tween 20). The plate was then incubated with the polyclonal anti-human BDNF antibody overnight. The amount of specifically bound polyclonal antibody, which when exposed to chromogenic substrate (TMB reagent; Promega), changes color in proportion to the amount of BDNF present in the sample. The color intensity was quantified by measuring the absorbance at 450 nm. BDNF standards, ranging in concentration from 0 to 500 pg/mL were added in parallel wells in the same medium than hippocampal neurons.

[5] = test system: GDNF release by primary rat astrocytes; assay: GDNF release by primary rat astrocytes, in situ ELISA; type: cell-based; conditions: 1 μM, 5 days incubation
Protocol: Experimental Protocol-In Situ ELISA on Primary Astrocytes Rat Primary Culture of Astrocytes Rat mixed glial cells were cultured as described by McCarthy et al. Primary rat glial cells were prepared from the cortical of newborn Wistar rats (1 day). Briefly, meninges and blood vessels of the mice cortex were removed and placed in ice-cold medium of Leibovitz (L15; PanBiotech, ref P04-27055, batch 4511117) containing 2% Penicillin-Streptomycin (PS; PanBiotech, ref P06-07100, batch 2110917) and 1% of bovine serum albumin (BSA; […] Cells were then submitted to a supplementary incubation of 15 min. at 37° C. in presence of deoxyribonuclease I (0.1 mg/mL Panbiotech, ref: P60-37780100, batch: H140508). Cells were then pelleted (5 min. at 1200 rpm) and trypsinization was stopped by adding DMEM (PanBiotech, Ref P04-03600, Batch 8420517) supplemented with 10% FCS (Fischer, Ref 10270106, batch 41A0940K), 1 mM of Na/pyruvate (PanBiotech, ref: P04-43100, batch 3470914). Cells suspension was mechanically dissociated and filtered through […] diameter nylon meshes (BD Falcon, Ref: 352340). The cells were collected by centrifugation at 1200 rpm/min for 10 min, resuspended in culture medium and then plated in culture flasks (Dutscher, ref: 690175). Cells were seeded at a density of 1.25×10^5 cells/cm^2 and culture in 5% CO2 at 37° C. Medium was changed 3 times per week. At confluency, astrocytes were plated in 96-well Nunc MaxiSorp surface polystyrene flat-bottom immunoplate precoated with poly-D-lysine during 30 min (Sigma, Ref: […], batch: SLBS8705) and an anti-GDNF monoclonal antibody overnight at 4° C. at a density of 30,000 cells/well. […] At the end of drug treatment, cells were carefully washed with TBST (20 mM Tris-HCl (pH 7.6), 150 mM NaCl, and 0.05% (vol/vol) Tween 20). The plate was then incubated with the polyclonal anti-human GDNF antibody overnight. The amount of specifically bound polyclonal antibody, which when exposed to chromogenic substrate (TMB reagent; Promega), changes color in proportion to the amount of GDNF present in the sample. The color intensity was quantified by measuring the absorbance at 450 nm. GDNF standards, ranging in concentration from 0 to 500 pg/mL were added in parallel wells in the same medium than hippocampal neurons.

## glatiramer acetate [reference compound]
[1]
  BDNF expression astrocytes, % increase of control conditions: 10%
[1]; listed as glatiramer acetate
  BDNF expression astrocytes, % increase of control conditions: 10%
[1]; 25 μg/mL, 5 days, ns p>0.05
  Effect on BDNF expression by astrocytes compared to control condition (statistical): no effect

## O=C1c2ccccc2CN1CC1CCN(CC(O)c2ccc(F)cc2)CC1 (stereo not shown) [BFB-520]
[2]
  maximum plasma concentration (Cmax): < 12 ng/mL

## CCCN1CCC(c2cccc(S(C)(=O)=O)c2)CC1 [Pridopidine, pridopidine, reference compound]
[3]
  BDNF release hippocampal neurons, % increase of control conditions: 18.4%
[3]; listed as pridopidine
  BDNF release hippocampal neurons, % increase of control conditions: 18.4%
[4]
  BDNF release astrocytes, % increase of control conditions: 22.3%
[4]; listed as pridopidine
  BDNF release astrocytes, % increase of control conditions: 22%

## Cc1cccc([C@H](C)c2cnc[nH]2)c1C [Dexmedetomidine, dexmedetomidine, reference compound]
[5]
  GDNF release astrocytes, % increase of control conditions: 15.8%
[5]; listed as dexmedetomidine
  GDNF release astrocytes, % increase of control conditions: 15.8%
